The target in data set [1] is T1, Human immunodeficiency virus type 1 integrase (Human immunodeficiency virus 1, UniProt Q7ZJM1). Put plainly: Inhibition of LEDGF/p75-independant HIV1 His/FLAG-tagged integrase expressed in Escherichia coli BL21(DE3) by HTRF assay.
Data set [2] has as its target T1, Human immunodeficiency virus type 1 integrase. Put plainly: Inhibition of LEDGF/p75 binding to HIV1 His/FLAG-tagged integrase expressed in Escherichia coli BL21(DE3) by HTRF assay.
Data set [3] has the same target. Put plainly: Inhibition of LEDGF/p75-dependant HIV1 His/FLAG-tagged integrase expressed in Escherichia coli BL21(DE3) by HTRF assay.
In data set [4] the test system is Human immunodeficiency virus 1. Put plainly: Antiviral activity against HIV-1 NL4-3 harboring integrase A128T mutant infected in human HeLa TZM-bl cells after 48 hrs by p24 ELISA. Format: functional, organism-based. The settings on record: Human immunodeficiency virus 1, NL4-3, 48 h.
The target in data set [5] is T1, Human immunodeficiency virus type 1 integrase. Briefly: Inhibition of biotinylated-TAR-RNA binding to HIV1 His6-tagged integrase expressed in Escherichia coli BL21(DE3) preincubated for 2 hrs followed by RNA addition and measured after 2 hrs by Alpha screen assay.
Data set [6] concerns Human immunodeficiency virus 1. Put plainly: Antiviral activity against HIV-1 NL4-3 harboring wild-type integrase infected in human HeLa TZM-bl cells after 48 hrs by p24 ELISA. The settings on record: Human immunodeficiency virus 1, NL4-3, 48 h. Format: functional, organism-based.
The target in data set [7] is T1, Human immunodeficiency virus type 1 integrase. Briefly: Induction of HIV1 His/FLAG-tagged integrase hyper-multimerization expressed in Escherichia coli BL21(DE3) by HTRF assay.
A short description of data set [8]: Stability of the compound at 60 degC for 17 hrs by 1H NMR analysis. In kind it is physicochemical.
The nature of data set [9]: Drug metabolism in DMSO d6 at 100 degC for 3 days by 1H NMR analysis.
Data set [10] can be described thus: Drug metabolism assessed as 1-([1,1'-biphenyl]-4-yl)-3-(chroman-6-yl)isoquinoline-4-carbaldehyde formation at 100 degC for 17 days by 1H NMR analysis.
Data set [11] can be described thus: Drug metabolism assessed as 1-([1,1'-biphenyl]-4-yl)-3-(chroman-6-yl)isoquinoline-4-carbaldehyde formation at 100 degC for 17 days by HSQC NMR analysis.
A short description of data set [12]: Drug level treated with 2-(1-(biphenyl-4-yl)-3-(chroman-6-yl)isoquinolin-4-yl)-2-tert-butoxyacetic acid at 100 degC for 17 days by HSQC NMR analysis. Format: physicochemical. The settings on record: 408 h.
Data set [13] in a line: Drug level treated with 2-(1-(biphenyl-4-yl)-3-(chroman-6-yl)isoquinolin-4-yl)-2-tert-butoxyacetic acid at 100 degC for 17 days by 1H NMR analysis. The settings on record: 408 h. In kind it is physicochemical.

Each structure is given as a SMILES string.

T1 sequence (Q7ZJM1 whole entry): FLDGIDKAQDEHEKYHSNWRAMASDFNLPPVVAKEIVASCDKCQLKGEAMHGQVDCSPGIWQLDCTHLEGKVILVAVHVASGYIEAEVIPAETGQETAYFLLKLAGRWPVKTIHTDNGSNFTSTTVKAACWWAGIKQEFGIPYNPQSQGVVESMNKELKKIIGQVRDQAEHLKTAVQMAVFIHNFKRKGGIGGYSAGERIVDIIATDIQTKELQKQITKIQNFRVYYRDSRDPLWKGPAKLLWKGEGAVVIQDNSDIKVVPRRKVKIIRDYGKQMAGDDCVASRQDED

Turning to `CC(C)(C)OC(C(=O)O)c1c(-c2ccccc2)nc(-c2ccccc2)c2ccccc12` (stereo not given), the IC50 in [1] stood at 10100 nM. This counts as double-digit micromolar.
As to `Cc1nc2ccc(Br)cc2c(-c2ccc(Cl)cc2)c1C(OC(C)(C)C)C(=O)O` (stereo not given), the IC50 in data set [2] was found to be 150 nM; in data set [3], 150 nM; in [5] it was 136 nM; in [1] it was 120 nM. Moreover, the figures for the EC50 in [4], in data set [6] and in data set [7] were 12200 nM, 630 nM and 146 nM, respectively.
Take `COc1ccc(-c2nc(-c3ccc4c(c3)CCCO4)c(C(OC(C)(C)C)C(=O)O)c3ccccc23)cc1` (stereo not given): the IC50 in data set [1] was 1000 nM.
`CC(C)(C)OC(C(=O)O)c1c(-c2ccc3c(c2)CCCO3)nc(-c2ccccc2)c2ccccc12` (stereo not given) gave an IC50 in data set [1] of 4650 nM. Compared with the last compound, the IC50 is about 4.7-fold higher.
Turning to `CC(C)(C)OC(C(=O)O)c1c(-c2ccc3c(c2)CCCO3)nc(-c2cnn(Cc3ccccc3)c2)c2ccccc12` (stereo not given), the IC50 came out at 36700 nM in data set [2], 23400 nM in [3], 210 nM in data set [5] and 480 nM in data set [1]. Further, the figures for the EC50 in [4], in data set [6] and in [7] were 730 nM, 1100 nM and below 1790 nM, respectively.
In turn, `CC(C)(C)OC(C(=O)O)c1c(-c2ccc3c(c2)CCCO3)nc(-c2cccc(F)c2)c2ccccc12` (stereo not given) displayed an IC50 in data set [1] of 12900 nM. Further, the Stability result in [8] is recorded as “Stable”. In addition, the Drug metabolism result in [9] is on record as “Metabolite detected”.
`CC(C)(C)OC(C(=O)O)c1c(-c2ccc3c(c2)CCCO3)nc(-c2nc3cc(Cl)ccc3[nH]2)c2ccccc12` (stereo not given): the IC50 in data set [1] worked out at 810 nM.
For `CC(C)(C)OC(C(=O)O)c1c(-c2ccc3c(c2)CCCO3)nc(-c2ccc(-c3ccccc3)cc2)c2ccccc12` (stereo not given), the Drug metabolism entry in data set [10] and in data set [11] was “Metabolite detected” throughout. This compound returned an IC50 in [1] of 830 nM. Further, in data set [8], the Stability entry is given as “Stable”.
As to `COc1cccc(-c2nc(-c3ccc4c(c3)CCCO4)c(C(OC(C)(C)C)C(=O)O)c3ccccc23)c1` (stereo not given), half-maximal inhibition in data set [1] (IC50) was put at 1140 nM. Further, in data set [8], the Stability entry is “Stable”. Also, the Drug metabolism result in data set [9] was “Metabolite detected”.
`CC(C)(C)OC(C(=O)O)c1c(-c2ccc3c(c2)CCCO3)nc(-c2cccc(C(=O)O)c2)c2ccccc12` (stereo not given): the midpoint of inhibition in data set [1], the IC50, lay at 12300 nM.
Still for that read-out and setting: with `CC(C)(C)OC(C(=O)O)c1c(-c2ccc3c(c2)CCCO3)nc(-c2ccc(C(F)(F)F)cc2)c2ccccc12` (stereo not given) the figure was 7640 nM; with `COc1cccc(-c2nc(-c3ccccc3)c(C(OC(C)(C)C)C(=O)O)c3ccccc23)c1` (stereo not given), 13800 nM.
As to `O=Cc1c(-c2ccc3c(c2)CCCO3)nc(-c2ccc(-c3ccccc3)cc2)c2ccccc12`, the Drug metabolism entry in data set [12] and in data set [13] was “Metabolite_Detected” throughout.
As to `CC(C)(C)OC(C(=O)O)c1c(-c2ccc3c(c2)CCCO3)nc(-c2ccco2)c2ccccc12` (stereo not given), the IC50 in data set [1] is 3550 nM.
The same measure, in the same setting: in the case of `CC(C)(C)OC(C(=O)O)c1c(-c2ccc3c(c2)CCCO3)nc(-c2ccc3c(c2)CCCO3)c2ccccc12` (stereo not given) it was 1220 nM.

These data come from ChEMBL document CHEMBL4330186, “An Isoquinoline Scaffold as a Novel Class of Allosteric HIV-1 Integrase Inhibitors” (ACS Med Chem Lett, 2019).
